Assay results taken from patent US6384086B1, “Ethene containing solutions and use thereof in methods of therapy or prophylaxis” (priority 1996, dated 2002).

Columns and labels:
Hepatitis C = assay: trial on a Hepatitis C sufferer, ALT count as infection marker; format: in vivo, human; details: for reduction of ALT count: over 16 week trial period, same trialist, interferon 9 million IU weekly
[1] = tested on: Poliovirus type 1 (Sabin)
[2] = tested on: eight bacterial strains representing four bacterial genera (Staphylococcus, Pseudomonas, Klebsiella, Enterococcus)
[3] = liquid containing reactive components

| Compound | anti-Hepatitis C efficacy better than the interferon therapy (Hepatitis C; ALT reduction over 16 weeks) [%] | depression (reported by trialist) (Hepatitis C; during therapy) | ALT count (Hepatitis C; end of week 4 (from 242), daily 230 millilitres ethene gas in 745 millilitres purified water) [u/l] | ALT count (Hepatitis C; end of week 6) [u/l] | ALT count (Hepatitis C; end of week 14) [u/l] | infection symptoms (Hepatitis C; first 18 days therapy) | reduction of ALT count (Hepatitis C) [u/l] | ALT count (Hepatitis C; week 16) [u/l] | sterilizing effect in vitro (Influenza A (H3N2)) | sterilizing effect in vitro [1] | sterilizing effect in vitro (Herpes simplex virus) | sterilizing effect in vitro [2] | reduction of ethene in solution by reaction with other components [3] [%] |
| --- | --- | --- | --- | --- | --- | --- | --- | --- | --- | --- | --- | --- | --- |
| C=C [ethene] | 337 | significant lifting | 218 | 303 | 93 | amelioration of infection symptoms | 153 | 89 | not to be sterilized | not to be sterilized | not to be sterilized | without apparent sterilizing success | 50 |
| interferon [reference compound] | – | – | – | – | – | – | 35 | – | – | – | – | – | – |
